≈ marks a conversion by molar mass, not a printed value. *1 amine or outer side, *2 acyl side, *3 side chain or, on linkers, in order; H or OH if unused. Where a SMILES comes first, the peptide text is derived from it. Bridges are numbered along the chain shown (N, C = ends). [ ]: non-standard residue; d: D form. The star is where a group is joined. hTyr(3S-OH,4S-OH,3'-OSO3H) = N[C@H](C(=O)O)[C@H](O)[C@@H](O)c1ccc(O)c(OS(=O)(=O)O)c1; Orn(4R-OH,5R-OH) = O=C([C@H](C[C@@H](O)[C@@H](O)N[*:3])N[*:1])[*:2]; Pro(3S-OH,4S-Me) = C[C@H]1CN[C@H](C(=O)O)[C@H]1O; X1 = CCCCCOc1ccc(-c2cc(-c3ccc(C(=O)*)cc3)no2)cc1; Gln(3R-OH) = NC(=O)C[C@@H](O)[C@H](N)C(=O)O; Hyp = O=C(O)[C@@H]1C[C@@H](O)CN1
Experiments:
Type in all cases: functional
Debaryomyces hansenii = assay: Antifungal activity against Candida famata after 24 to 48 hrs by AFST-EUCAST based broth microdilution method
Cyberlindnera saturnus = assay: Antifungal activity against Williopsis saturnus after 24 to 48 hrs by AFST-EUCAST based broth microdilution method
Trichosporon = assay: Antifungal activity against Trichosporon after 24 to 48 hrs by AFST-EUCAST based broth microdilution method
[Candida] inconspicua = Antifungal activity against Candida inconspicua after 24 to 48 hrs by AFST-EUCAST based broth microdilution method; conditions: Pichia inconspicua
Pichia norvegensis = assay: Antifungal activity against Candida norvegensis after 24 to 48 hrs by AFST-EUCAST based broth microdilution method
Kodamaea ohmeri = assay: Antifungal activity against Kodamaea ohmeri after 24 to 48 hrs by AFST-EUCAST based broth microdilution method
Nakaseomyces glabratus = assay: Antifungal activity against Candida glabrata after 24 to 48 hrs by AFST-EUCAST based broth microdilution method
Candida dubliniensis = assay: Antifungal activity against Candida dubliniensis after 24 to 48 hrs by AFST-EUCAST based broth microdilution method
Nakaseomyces nivariensis = assay: Antifungal activity against Candida nivariensis after 24 to 48 hrs by AFST-EUCAST based broth microdilution method
[Candida] haemuloni = Antifungal activity against Candida haemulonii after 24 to 48 hrs by AFST-EUCAST based broth microdilution method; conditions: Candidozyma haemuli
Meyerozyma caribbica = assay: Antifungal activity against Candida fermentati after 24 to 48 hrs by AFST-EUCAST based broth microdilution method
Candida albicans = assay: Antifungal activity against Candida albicans after 24 to 48 hrs by AFST-EUCAST based broth microdilution method
Yarrowia lipolytica = assay: Antifungal activity against Candida lipolytica after 24 to 48 hrs by AFST-EUCAST based broth microdilution method
Zygosaccharomyces = assay: Antifungal activity against Zygosaccharomyces after 24 to 48 hrs by AFST-EUCAST based broth microdilution method
Cryptococcus neoformans = assay: Antifungal activity against […] after 24 to 48 hrs by AFST-EUCAST based broth microdilution method
[Candida] intermedia = Antifungal activity against Candida intermedia after 24 to 48 hrs by AFST-EUCAST based broth microdilution method; conditions: Sungouiella intermedia
Candida parapsilosis = assay: Antifungal activity against Candida parapsilosis ATCC 22019 after 24 to 48 hrs by AFST-EUCAST based broth microdilution method; conditions: Lodderomyces parapsilosis
Pichia fermentans = assay: Antifungal activity against Candida lambica after 24 to 48 hrs by AFST-EUCAST based broth microdilution method
Rhodotorula mucilaginosa = assay: Antifungal activity against Rhodotorula mucilaginosa after 24 to 48 hrs by AFST-EUCAST based broth microdilution method
Cyberlindnera jadinii = assay: Antifungal activity against Candida utilis after 24 to 48 hrs by AFST-EUCAST based broth microdilution method; conditions: Williopsis jadinii
Candida africana = assay: Antifungal activity against Candida africana after 24 to 48 hrs by AFST-EUCAST based broth microdilution method
[1] = system: Meyerozyma guilliermondii; assay: Antifungal activity against Candida guilliermondii after 24 to 48 hrs by AFST-EUCAST based broth microdilution method
Candida tropicalis = assay: Antifungal activity against Candida tropicalis after 24 to 48 hrs by AFST-EUCAST based broth microdilution method
Pichia kudriavzevii = assay: Antifungal activity against Candida krusei ATCC 6258 after 24 to 48 hrs by AFST-EUCAST based broth microdilution method
Wickerhamomyces anomalus = assay: Antifungal activity against Candida pelliculosa after 24 to 48 hrs by AFST-EUCAST based broth microdilution method; conditions: Hansenula anomala
Diutina rugosa = assay: Antifungal activity against Candida rugosa after 24 to 48 hrs by AFST-EUCAST based broth microdilution method
Kluyveromyces lactis = assay: Antifungal activity against Candida sphaerica after 24 to 48 hrs by AFST-EUCAST based broth microdilution method
Saccharomyces cerevisiae = assay: Antifungal activity against Saccharomyces cerevisiae after 24 to 48 hrs by AFST-EUCAST based broth microdilution method
Geotrichum = assay: Antifungal activity against Geotrichum after 24 to 48 hrs by AFST-EUCAST based broth microdilution method
Kluyveromyces marxianus = assay: Antifungal activity against Candida kefyr after 24 to 48 hrs by AFST-EUCAST based broth microdilution method
Clavispora lusitaniae = assay: Antifungal activity against Candida lusitaniae after 24 to 48 hrs by AFST-EUCAST based broth microdilution method

## CCCCCOc1ccc(-c2cc(-c3ccc(C(=O)N[C@H]4C[C@@H](O)[C@@H](O)NC(=O)[C@@H]5[C@@H](O)[C@@H](C)CN5C(=O)[C@H]([C@H](O)CC(N)=O)NC(=O)[C@H]([C@H](O)[C@@H](O)c5ccc(O)c(OS(=O)(=O)O)c5)NC(=O)[C@@H]5C[C@@H](O)CN5C(=O)[C@H]([C@@H](C)O)NC4=O)cc3)no2)cc1 [MICAFUNGIN] (X1-[Orn(4R-OH,5R-OH)]T[Hyp][hTyr(3S-OH,4S-OH,3'-OSO3H)][Gln(3R-OH)][Pro(3S-OH,4S-Me)]; lactam 1-C)
Debaryomyces hansenii
  MIC50: 0.06 µg/mL (≈ 0.0472 µM)
  MIC90: 1 µg/mL (≈ 0.787 µM)
Cyberlindnera saturnus
  MIC50: 0.25 µg/mL (≈ 0.197 µM)
  MIC90: 16 µg/mL (≈ 12.6 µM)
Trichosporon
  MIC50: 16 µg/mL (≈ 12.6 µM)
[Candida] inconspicua
  MIC50: 0.06 µg/mL (≈ 0.0472 µM)
  MIC90: 1 µg/mL (≈ 0.787 µM)
Pichia norvegensis
  MIC50: 0.06 µg/mL (≈ 0.0472 µM)
  MIC90: 1 µg/mL (≈ 0.787 µM)
Kodamaea ohmeri
  MIC50: 0.25 µg/mL (≈ 0.197 µM)
  MIC90: 16 µg/mL (≈ 12.6 µM)
Nakaseomyces glabratus
  MIC50: 0.03 µg/mL (≈ 0.0236 µM)
  MIC90: 0.06 µg/mL (≈ 0.0472 µM)
Candida dubliniensis
  MIC50: 0.06 µg/mL (≈ 0.0472 µM)
  MIC90: 1 µg/mL (≈ 0.787 µM)
Nakaseomyces nivariensis
  MIC50: 0.06 µg/mL (≈ 0.0472 µM)
  MIC90: 1 µg/mL (≈ 0.787 µM)
[Candida] haemuloni
  MIC50: 0.25 µg/mL (≈ 0.197 µM)
  MIC90: 0.25 µg/mL (≈ 0.197 µM)
Meyerozyma caribbica
  MIC50: 1 µg/mL (≈ 0.787 µM)
  MIC90: 1 µg/mL (≈ 0.787 µM)
Candida albicans
  MIC50: 0.03 µg/mL (≈ 0.0236 µM)
  MIC90: 0.06 µg/mL (≈ 0.0472 µM)
Yarrowia lipolytica
  MIC50: 0.06 µg/mL (≈ 0.0472 µM)
  MIC90: 1 µg/mL (≈ 0.787 µM)
Zygosaccharomyces
  MIC50: 0.25 µg/mL (≈ 0.197 µM)
  MIC90: 16 µg/mL (≈ 12.6 µM)
Cryptococcus neoformans
  MIC50: 16 µg/mL (≈ 12.6 µM)
  MIC90: 16 µg/mL (≈ 12.6 µM)
[Candida] intermedia
  MIC50: 0.06 µg/mL (≈ 0.0472 µM)
  MIC90: 1 µg/mL (≈ 0.787 µM)
Candida parapsilosis
  MIC50: 2 µg/mL (≈ 1.57 µM)
  MIC90: 2 µg/mL (≈ 1.57 µM)
Pichia fermentans
  MIC50: 0.06 µg/mL (≈ 0.0472 µM)
  MIC90: 1 µg/mL (≈ 0.787 µM)
Rhodotorula mucilaginosa
  MIC50: 16 µg/mL (≈ 12.6 µM)
Cyberlindnera jadinii
  MIC50: 0.06 µg/mL (≈ 0.0472 µM)
  MIC90: 1 µg/mL (≈ 0.787 µM)
Candida africana
  MIC50: 0.06 µg/mL (≈ 0.0472 µM)
  MIC90: 1 µg/mL (≈ 0.787 µM)
[1]
  MIC50: 1 µg/mL (≈ 0.787 µM)
  MIC90: 2 µg/mL (≈ 1.57 µM)
Candida tropicalis
  MIC50: 0.06 µg/mL (≈ 0.0472 µM)
  MIC90: 0.125 µg/mL (≈ 0.0984 µM)
Pichia kudriavzevii
  MIC50: 0.25 µg/mL (≈ 0.197 µM)
  MIC90: 0.25 µg/mL (≈ 0.197 µM)
Wickerhamomyces anomalus
  MIC50: 0.06 µg/mL (≈ 0.0472 µM)
  MIC90: 1 µg/mL (≈ 0.787 µM)
Diutina rugosa
  MIC50: 0.06 µg/mL (≈ 0.0472 µM)
  MIC90: 1 µg/mL (≈ 0.787 µM)
Kluyveromyces lactis
  MIC50: 0.06 µg/mL (≈ 0.0472 µM)
  MIC90: 1 µg/mL (≈ 0.787 µM)
Saccharomyces cerevisiae
  MIC50: 0.25 µg/mL (≈ 0.197 µM)
  MIC90: 16 µg/mL (≈ 12.6 µM)
Geotrichum
  MIC50: 0.25 µg/mL (≈ 0.197 µM)
  MIC90: 16 µg/mL (≈ 12.6 µM)
Kluyveromyces marxianus
  MIC50: 0.125 µg/mL (≈ 0.0984 µM)
  MIC90: 0.25 µg/mL (≈ 0.197 µM)
Clavispora lusitaniae
  MIC50: 0.25 µg/mL (≈ 0.197 µM)
  MIC90: 0.5 µg/mL (≈ 0.394 µM)

## CC[C@H](C)C[C@H](C)CCCCCCCCC(=O)N[C@H]1C[C@@H](O)[C@@H](NCCN)NC(=O)[C@@H]2[C@@H](O)CCN2C(=O)[C@H]([C@H](O)CCN)NC(=O)[C@H]([C@H](O)[C@@H](O)c2ccc(O)cc2)NC(=O)[C@@H]2C[C@@H](O)CN2C(=O)[C@H]([C@@H](C)O)NC1=O [CASPOFUNGIN]
Debaryomyces hansenii
  MIC50: 0.5 µg/mL (≈ 0.457 µM)
  MIC90: 1 µg/mL (≈ 0.915 µM)
Cyberlindnera saturnus
  MIC50: 1 µg/mL (≈ 0.915 µM)
  MIC90: 16 µg/mL (≈ 14.6 µM)
Trichosporon
  MIC50: 16 µg/mL (≈ 14.6 µM)
[Candida] inconspicua
  MIC50: 0.5 µg/mL (≈ 0.457 µM)
  MIC90: 1 µg/mL (≈ 0.915 µM)
Pichia norvegensis
  MIC50: 0.5 µg/mL (≈ 0.457 µM)
  MIC90: 1 µg/mL (≈ 0.915 µM)
Kodamaea ohmeri
  MIC50: 1 µg/mL (≈ 0.915 µM)
  MIC90: 16 µg/mL (≈ 14.6 µM)
Nakaseomyces glabratus
  MIC50: 0.5 µg/mL (≈ 0.457 µM)
  MIC90: 1 µg/mL (≈ 0.915 µM)
Candida dubliniensis
  MIC50: 0.5 µg/mL (≈ 0.457 µM)
  MIC90: 1 µg/mL (≈ 0.915 µM)
Nakaseomyces nivariensis
  MIC50: 0.5 µg/mL (≈ 0.457 µM)
  MIC90: 1 µg/mL (≈ 0.915 µM)
[Candida] haemuloni
  MIC50: 1 µg/mL (≈ 0.915 µM)
  MIC90: 2 µg/mL (≈ 1.83 µM)
Meyerozyma caribbica
  MIC50: 1 µg/mL (≈ 0.915 µM)
  MIC90: 2 µg/mL (≈ 1.83 µM)
Candida albicans
  MIC50: 0.5 µg/mL (≈ 0.457 µM)
  MIC90: 0.5 µg/mL (≈ 0.457 µM)
Yarrowia lipolytica
  MIC50: 0.5 µg/mL (≈ 0.457 µM)
  MIC90: 1 µg/mL (≈ 0.915 µM)
Zygosaccharomyces
  MIC50: 1 µg/mL (≈ 0.915 µM)
  MIC90: 16 µg/mL (≈ 14.6 µM)
Cryptococcus neoformans
  MIC50: 8 µg/mL (≈ 7.32 µM)
  MIC90: 16 µg/mL (≈ 14.6 µM)
[Candida] intermedia
  MIC50: 0.5 µg/mL (≈ 0.457 µM)
  MIC90: 1 µg/mL (≈ 0.915 µM)
Candida parapsilosis
  MIC50: 2 µg/mL (≈ 1.83 µM)
  MIC90: 2 µg/mL (≈ 1.83 µM)
Pichia fermentans
  MIC50: 0.5 µg/mL (≈ 0.457 µM)
  MIC90: 1 µg/mL (≈ 0.915 µM)
Rhodotorula mucilaginosa
  MIC50: 16 µg/mL (≈ 14.6 µM)
Cyberlindnera jadinii
  MIC50: 0.5 µg/mL (≈ 0.457 µM)
  MIC90: 1 µg/mL (≈ 0.915 µM)
Candida africana
  MIC50: 0.5 µg/mL (≈ 0.457 µM)
  MIC90: 1 µg/mL (≈ 0.915 µM)
[1]
  MIC50: 2 µg/mL (≈ 1.83 µM)
  MIC90: 2 µg/mL (≈ 1.83 µM)
Candida tropicalis
  MIC50: 0.5 µg/mL (≈ 0.457 µM)
  MIC90: 1 µg/mL (≈ 0.915 µM)
Pichia kudriavzevii
  MIC50: 1 µg/mL (≈ 0.915 µM)
  MIC90: 2 µg/mL (≈ 1.83 µM)
Wickerhamomyces anomalus
  MIC50: 0.5 µg/mL (≈ 0.457 µM)
  MIC90: 1 µg/mL (≈ 0.915 µM)
Diutina rugosa
  MIC50: 0.5 µg/mL (≈ 0.457 µM)
  MIC90: 1 µg/mL (≈ 0.915 µM)
Kluyveromyces lactis
  MIC50: 0.5 µg/mL (≈ 0.457 µM)
  MIC90: 1 µg/mL (≈ 0.915 µM)
Saccharomyces cerevisiae
  MIC50: 1 µg/mL (≈ 0.915 µM)
  MIC90: 16 µg/mL (≈ 14.6 µM)
Geotrichum
  MIC50: 1 µg/mL (≈ 0.915 µM)
  MIC90: 16 µg/mL (≈ 14.6 µM)
Kluyveromyces marxianus
  MIC50: 0.25 µg/mL (≈ 0.229 µM)
  MIC90: 0.5 µg/mL (≈ 0.457 µM)
Clavispora lusitaniae
  MIC50: 1 µg/mL (≈ 0.915 µM)
  MIC90: 1 µg/mL (≈ 0.915 µM)
